The values below come from ChEMBL document CHEMBL5465560, “Selectivity Literature for EUbOPEN Chemogenomic Library” (2024).

pIC50: −log10 of the molar value.

Assay [1] addresses T1, Cyclin-dependent kinase 11A (Homo sapiens) (UniProt Q9UQ88).
T1 sequence (whole entry): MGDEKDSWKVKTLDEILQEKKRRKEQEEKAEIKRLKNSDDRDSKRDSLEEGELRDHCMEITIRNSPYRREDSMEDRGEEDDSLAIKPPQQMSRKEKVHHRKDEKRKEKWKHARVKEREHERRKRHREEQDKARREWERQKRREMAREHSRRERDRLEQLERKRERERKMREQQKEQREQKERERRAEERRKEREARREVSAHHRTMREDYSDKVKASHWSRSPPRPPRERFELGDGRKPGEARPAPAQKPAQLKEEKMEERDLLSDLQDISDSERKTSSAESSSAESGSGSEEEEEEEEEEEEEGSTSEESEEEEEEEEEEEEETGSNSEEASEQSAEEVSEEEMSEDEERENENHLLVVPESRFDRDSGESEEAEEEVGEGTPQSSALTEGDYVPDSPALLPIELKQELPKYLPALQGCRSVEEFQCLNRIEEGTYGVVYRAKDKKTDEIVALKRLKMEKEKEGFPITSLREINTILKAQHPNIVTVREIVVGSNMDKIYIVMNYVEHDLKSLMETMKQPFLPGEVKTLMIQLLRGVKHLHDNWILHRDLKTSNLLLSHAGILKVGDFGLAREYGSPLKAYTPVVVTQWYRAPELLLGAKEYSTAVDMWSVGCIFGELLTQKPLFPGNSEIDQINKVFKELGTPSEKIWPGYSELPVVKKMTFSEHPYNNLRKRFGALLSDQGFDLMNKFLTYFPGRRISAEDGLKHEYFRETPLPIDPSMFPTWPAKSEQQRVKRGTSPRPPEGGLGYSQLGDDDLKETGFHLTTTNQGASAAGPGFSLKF
The assay is described as follows: Selectivity interaction (LanthaScreen Eu Kinase Binding Assay) EUB0001632a CDK11A. The conditions noted are these: at 10 µM. On the technique in general: In TR-FRET formats the signal depends on donor and acceptor labels being close together.

Assay [2] has as its target Protein kinase C delta type (Homo sapiens) (UniProt Q05655). The conditions noted are these: at 10 µM.
Assay [3] has as its target Serine/threonine-protein kinase WNK1 (Homo sapiens) (UniProt Q9H4A3). The assay is described as follows: Selectivity interaction (KinomeScan (DiscoverX)) EUB0000695a WNK1. The conditions noted are these: at 100 nM.
The target in assay [4] is Transient receptor potential cation channel subfamily M member 6 (Homo sapiens) (UniProt Q9BX84). The conditions noted are these: at 10 µM.
Assay [5] deals with CDK9/cyclin T1 (Homo sapiens, UniProt P50750). The assay is described as follows: Selectivity interaction (Radiometric kinase assay ) EUB0000090b CDK9. It is filed as protein-complex assay.
CDK9/cyclin T1, sequence (O60563 whole entry): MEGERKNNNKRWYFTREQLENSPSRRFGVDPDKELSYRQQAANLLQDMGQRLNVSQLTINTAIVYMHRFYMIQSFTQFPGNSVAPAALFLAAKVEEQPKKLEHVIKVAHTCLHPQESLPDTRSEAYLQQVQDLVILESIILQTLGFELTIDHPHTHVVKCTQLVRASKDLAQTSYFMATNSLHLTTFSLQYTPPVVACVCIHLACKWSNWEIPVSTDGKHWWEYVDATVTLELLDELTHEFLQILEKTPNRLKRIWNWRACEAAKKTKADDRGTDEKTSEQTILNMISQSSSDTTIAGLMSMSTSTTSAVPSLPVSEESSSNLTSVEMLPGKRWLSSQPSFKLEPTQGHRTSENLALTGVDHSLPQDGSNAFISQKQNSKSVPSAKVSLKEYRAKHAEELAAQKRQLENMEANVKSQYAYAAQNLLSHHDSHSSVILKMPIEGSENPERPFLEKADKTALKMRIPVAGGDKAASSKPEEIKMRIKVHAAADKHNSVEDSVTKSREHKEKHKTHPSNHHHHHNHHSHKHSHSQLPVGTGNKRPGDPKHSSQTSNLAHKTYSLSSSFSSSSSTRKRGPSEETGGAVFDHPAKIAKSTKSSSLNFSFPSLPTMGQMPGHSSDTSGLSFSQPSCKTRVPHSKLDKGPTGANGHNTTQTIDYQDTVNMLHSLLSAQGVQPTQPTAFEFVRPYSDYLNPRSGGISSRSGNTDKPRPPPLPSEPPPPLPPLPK
CDK9/cyclin T1, sequence (P50750 whole entry): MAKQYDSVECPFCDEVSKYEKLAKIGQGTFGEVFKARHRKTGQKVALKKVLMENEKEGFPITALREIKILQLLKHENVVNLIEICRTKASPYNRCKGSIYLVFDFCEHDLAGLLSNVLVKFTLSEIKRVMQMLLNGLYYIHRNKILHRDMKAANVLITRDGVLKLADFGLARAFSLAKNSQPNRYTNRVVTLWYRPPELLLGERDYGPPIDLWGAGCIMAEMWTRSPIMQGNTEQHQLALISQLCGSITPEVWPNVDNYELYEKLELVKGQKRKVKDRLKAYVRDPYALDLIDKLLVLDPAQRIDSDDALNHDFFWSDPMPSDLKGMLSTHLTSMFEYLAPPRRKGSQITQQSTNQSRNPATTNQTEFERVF
Assay [6] has as its target T2, Mitogen-activated protein kinase kinase kinase 15 (Homo sapiens) (UniProt Q6ZN16).
T2 sequence (whole entry): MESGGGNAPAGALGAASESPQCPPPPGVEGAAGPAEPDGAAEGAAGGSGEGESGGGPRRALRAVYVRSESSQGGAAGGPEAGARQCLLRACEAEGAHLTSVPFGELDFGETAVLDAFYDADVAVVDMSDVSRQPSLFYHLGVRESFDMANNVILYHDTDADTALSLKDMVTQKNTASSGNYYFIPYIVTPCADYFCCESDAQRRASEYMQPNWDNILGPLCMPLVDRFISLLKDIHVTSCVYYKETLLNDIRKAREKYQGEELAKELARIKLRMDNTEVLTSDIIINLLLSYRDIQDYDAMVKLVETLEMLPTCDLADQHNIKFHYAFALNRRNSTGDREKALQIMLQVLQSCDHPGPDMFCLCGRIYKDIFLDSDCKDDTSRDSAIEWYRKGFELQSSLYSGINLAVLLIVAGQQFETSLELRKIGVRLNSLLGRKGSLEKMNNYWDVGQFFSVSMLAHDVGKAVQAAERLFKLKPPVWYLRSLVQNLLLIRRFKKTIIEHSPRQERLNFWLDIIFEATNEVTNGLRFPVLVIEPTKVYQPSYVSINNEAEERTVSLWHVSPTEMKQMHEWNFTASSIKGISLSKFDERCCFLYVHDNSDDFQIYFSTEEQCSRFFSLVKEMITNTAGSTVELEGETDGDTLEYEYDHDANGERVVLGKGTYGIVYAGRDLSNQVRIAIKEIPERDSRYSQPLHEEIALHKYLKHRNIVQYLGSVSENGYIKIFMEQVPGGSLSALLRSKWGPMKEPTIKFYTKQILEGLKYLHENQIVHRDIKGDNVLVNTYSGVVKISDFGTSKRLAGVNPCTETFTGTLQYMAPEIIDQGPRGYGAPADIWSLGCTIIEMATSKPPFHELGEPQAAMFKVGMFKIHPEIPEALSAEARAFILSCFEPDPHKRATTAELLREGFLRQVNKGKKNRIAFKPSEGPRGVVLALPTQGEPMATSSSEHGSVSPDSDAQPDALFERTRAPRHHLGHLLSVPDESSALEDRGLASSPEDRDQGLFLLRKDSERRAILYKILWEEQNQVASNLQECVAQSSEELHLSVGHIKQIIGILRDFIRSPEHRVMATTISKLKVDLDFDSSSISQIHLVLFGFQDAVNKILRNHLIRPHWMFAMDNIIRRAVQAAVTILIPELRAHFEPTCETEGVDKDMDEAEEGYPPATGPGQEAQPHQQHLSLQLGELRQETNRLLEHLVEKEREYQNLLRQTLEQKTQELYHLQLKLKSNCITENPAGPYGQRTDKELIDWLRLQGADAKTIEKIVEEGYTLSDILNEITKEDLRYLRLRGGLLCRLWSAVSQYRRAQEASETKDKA
Nature of the assay: Selectivity interaction (Ambit KINOMEscan and KiNATiv profiling in Jurkat cells) EUB0000090b MAP3K15. It is filed as cell-based. The conditions noted are these: at 1 µM.

Assay [7] deals with Homeodomain-interacting protein kinase 1 (Homo sapiens, UniProt Q86Z02). Nature of the assay: Selectivity interaction (Upstate Kinase Profiler service (Millipore)) EUB0000056c HIPK1. The conditions noted are these: at 1 µM.
For assay [8], the target named is Sodium-dependent dopamine transporter (Homo sapiens, UniProt Q01959). The assay is described as follows: Selectivity interaction (Dopamine Transporter assay, human recombinant ) EUB0000877a SLC6A3.
Sodium-dependent dopamine transporter, sequence (Q01959 whole entry): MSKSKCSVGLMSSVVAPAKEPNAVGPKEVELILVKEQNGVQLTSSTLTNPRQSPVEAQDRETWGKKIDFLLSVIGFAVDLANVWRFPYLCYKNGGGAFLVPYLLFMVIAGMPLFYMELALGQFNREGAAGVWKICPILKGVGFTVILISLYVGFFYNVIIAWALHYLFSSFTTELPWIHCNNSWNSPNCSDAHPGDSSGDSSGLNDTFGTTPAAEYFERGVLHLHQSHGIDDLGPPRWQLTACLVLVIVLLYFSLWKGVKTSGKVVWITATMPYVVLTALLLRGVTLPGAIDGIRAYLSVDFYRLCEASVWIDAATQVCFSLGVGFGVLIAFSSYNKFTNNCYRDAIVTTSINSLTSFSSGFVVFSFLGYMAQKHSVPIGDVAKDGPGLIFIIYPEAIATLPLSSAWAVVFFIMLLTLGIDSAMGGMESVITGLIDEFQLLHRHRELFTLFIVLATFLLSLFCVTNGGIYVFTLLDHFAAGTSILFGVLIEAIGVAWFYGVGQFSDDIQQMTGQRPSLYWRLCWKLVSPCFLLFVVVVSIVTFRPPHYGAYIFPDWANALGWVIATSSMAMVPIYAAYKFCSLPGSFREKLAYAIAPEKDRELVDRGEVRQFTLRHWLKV

Protein kinase C delta type (Homo sapiens), sequence (Q05655 whole entry, looked up): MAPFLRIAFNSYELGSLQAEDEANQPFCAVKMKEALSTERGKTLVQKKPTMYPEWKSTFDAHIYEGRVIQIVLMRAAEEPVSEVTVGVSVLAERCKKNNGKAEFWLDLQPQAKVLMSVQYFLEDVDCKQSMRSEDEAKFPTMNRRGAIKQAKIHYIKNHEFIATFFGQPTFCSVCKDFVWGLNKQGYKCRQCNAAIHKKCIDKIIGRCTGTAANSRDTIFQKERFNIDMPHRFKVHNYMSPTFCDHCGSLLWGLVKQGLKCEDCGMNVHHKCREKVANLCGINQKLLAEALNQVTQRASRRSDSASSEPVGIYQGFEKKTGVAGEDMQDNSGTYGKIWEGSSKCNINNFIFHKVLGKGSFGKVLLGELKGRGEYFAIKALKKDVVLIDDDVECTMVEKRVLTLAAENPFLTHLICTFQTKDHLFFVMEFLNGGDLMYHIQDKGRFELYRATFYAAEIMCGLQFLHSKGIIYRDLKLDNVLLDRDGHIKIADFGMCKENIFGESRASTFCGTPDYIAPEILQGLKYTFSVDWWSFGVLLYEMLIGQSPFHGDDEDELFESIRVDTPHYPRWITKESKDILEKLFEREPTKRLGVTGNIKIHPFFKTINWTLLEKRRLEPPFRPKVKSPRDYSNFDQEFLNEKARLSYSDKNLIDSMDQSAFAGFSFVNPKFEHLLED
Serine/threonine-protein kinase WNK1 (Homo sapiens), sequence (Q9H4A3 whole entry, looked up): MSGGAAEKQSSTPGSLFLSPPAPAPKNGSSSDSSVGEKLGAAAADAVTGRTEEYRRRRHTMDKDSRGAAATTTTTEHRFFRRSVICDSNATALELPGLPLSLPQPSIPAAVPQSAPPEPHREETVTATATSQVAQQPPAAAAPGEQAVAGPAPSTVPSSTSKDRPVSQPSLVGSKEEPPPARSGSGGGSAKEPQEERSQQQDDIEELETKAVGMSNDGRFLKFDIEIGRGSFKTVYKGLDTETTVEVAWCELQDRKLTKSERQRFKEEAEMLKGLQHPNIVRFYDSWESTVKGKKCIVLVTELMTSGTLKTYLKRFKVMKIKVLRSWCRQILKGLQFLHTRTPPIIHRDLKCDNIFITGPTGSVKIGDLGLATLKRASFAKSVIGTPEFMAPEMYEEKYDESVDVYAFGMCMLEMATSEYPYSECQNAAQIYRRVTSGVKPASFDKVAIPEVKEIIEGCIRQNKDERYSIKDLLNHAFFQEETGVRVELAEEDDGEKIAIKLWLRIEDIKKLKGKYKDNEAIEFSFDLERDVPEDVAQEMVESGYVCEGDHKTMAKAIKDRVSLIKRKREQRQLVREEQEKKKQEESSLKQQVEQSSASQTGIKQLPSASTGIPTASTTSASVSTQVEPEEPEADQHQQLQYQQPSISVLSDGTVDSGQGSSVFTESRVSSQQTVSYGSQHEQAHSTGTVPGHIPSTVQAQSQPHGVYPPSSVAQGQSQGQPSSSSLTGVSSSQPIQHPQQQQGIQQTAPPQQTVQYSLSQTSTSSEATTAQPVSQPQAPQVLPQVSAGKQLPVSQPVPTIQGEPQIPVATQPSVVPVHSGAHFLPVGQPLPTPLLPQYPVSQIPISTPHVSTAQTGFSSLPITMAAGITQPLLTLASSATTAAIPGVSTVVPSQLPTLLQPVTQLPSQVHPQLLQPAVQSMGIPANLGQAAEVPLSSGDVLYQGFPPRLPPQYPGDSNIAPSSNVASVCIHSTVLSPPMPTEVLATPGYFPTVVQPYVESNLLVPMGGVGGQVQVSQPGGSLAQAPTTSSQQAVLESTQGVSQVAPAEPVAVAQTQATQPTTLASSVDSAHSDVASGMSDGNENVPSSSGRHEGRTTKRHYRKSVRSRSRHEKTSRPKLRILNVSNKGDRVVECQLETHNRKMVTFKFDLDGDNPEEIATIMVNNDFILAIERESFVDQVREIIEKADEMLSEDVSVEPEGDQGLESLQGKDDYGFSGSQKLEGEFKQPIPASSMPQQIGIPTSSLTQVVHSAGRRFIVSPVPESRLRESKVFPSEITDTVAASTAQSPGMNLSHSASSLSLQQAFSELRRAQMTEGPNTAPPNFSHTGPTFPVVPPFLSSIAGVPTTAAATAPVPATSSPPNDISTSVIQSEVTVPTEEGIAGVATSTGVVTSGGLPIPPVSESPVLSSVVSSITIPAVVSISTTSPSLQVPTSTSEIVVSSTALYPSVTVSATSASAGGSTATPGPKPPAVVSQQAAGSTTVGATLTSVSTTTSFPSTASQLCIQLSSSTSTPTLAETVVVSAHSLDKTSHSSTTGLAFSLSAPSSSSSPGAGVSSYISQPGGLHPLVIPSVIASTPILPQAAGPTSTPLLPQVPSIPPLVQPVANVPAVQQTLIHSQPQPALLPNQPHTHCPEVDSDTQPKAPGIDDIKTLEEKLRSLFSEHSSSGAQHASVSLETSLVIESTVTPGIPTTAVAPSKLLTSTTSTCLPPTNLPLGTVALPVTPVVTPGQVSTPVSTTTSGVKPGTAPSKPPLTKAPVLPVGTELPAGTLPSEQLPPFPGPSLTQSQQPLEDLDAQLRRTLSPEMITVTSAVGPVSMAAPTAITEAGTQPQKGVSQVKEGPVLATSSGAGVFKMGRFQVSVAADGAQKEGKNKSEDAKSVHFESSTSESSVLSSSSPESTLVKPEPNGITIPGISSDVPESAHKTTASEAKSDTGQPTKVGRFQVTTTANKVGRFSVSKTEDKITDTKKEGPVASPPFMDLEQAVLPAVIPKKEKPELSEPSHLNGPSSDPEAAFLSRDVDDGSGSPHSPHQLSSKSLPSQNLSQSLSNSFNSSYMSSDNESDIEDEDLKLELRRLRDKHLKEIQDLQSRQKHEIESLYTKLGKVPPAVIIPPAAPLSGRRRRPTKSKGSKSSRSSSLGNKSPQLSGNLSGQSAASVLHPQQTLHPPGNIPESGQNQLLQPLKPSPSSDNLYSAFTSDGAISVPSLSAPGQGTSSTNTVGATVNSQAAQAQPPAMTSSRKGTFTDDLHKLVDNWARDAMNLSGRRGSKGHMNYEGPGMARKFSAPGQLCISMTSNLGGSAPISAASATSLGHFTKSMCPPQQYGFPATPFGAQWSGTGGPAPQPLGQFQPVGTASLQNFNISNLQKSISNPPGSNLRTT

With `Cn1cc(-n2cnc3c(NCc4nc5cc(Cl)c(Cl)cc5[nH]4)nc(N4CCOCC4)nc32)cn1`, the % of inhibition in assay [1] is -1.94%.
`CCN(CC)CCCCNc1ncc2cc(-c3cc(OC)cc(OC)c3)c(NC(=O)NC(C)(C)C)nc2n1` gave a % of control in assay [2] of 100%.
In assay [3], `Cc1cc(F)c(C(=O)Nc2cccc(-c3nncn3C(C)C)n2)cc1-n1cnc(C2CC2)c1` had a % of control of 100%.
In assay [4], `Cc1cc([C@@H](C)Nc2ccccc2C(=O)O)c2nc(N3CCOCC3)cc(=O)n2c1` [AZD-6482] showed a % of control of 100%.
In turn, `CN(C)C/C=C/C(=O)Nc1ccc(C(=O)N2CCCC(Nc3ncc(Cl)c(-c4c[nH]c5ccccc45)n3)C2)cc1` (stereo not drawn) gave a pIC50 in assay [5] of 4.98. Also, the % of control in assay [6] stood at 73%.
As for `Cc1ccc(-c2ccc3c(ccc4sc5c(c43)NC[C@@H](C)NC5=O)n2)cn1`, the % of inhibition in assay [7] stood at 7%.
`CCC(=O)N1CC[C@H](Nc2ncnc3c2CN(c2cnc(OC)c(C(F)(F)F)c2)CC3)C1` [LENIOLISIB]: the pIC50 in assay [8] was < 4.52.

Broadly, the pIC50 is −log10 of the IC50, conventionally taken in molar units.
